Measured values as given in the PolyMetriX glass transition set.
± gives the standard deviation of the reports.

**Q.** Which glass transition temperature does the source give for `*Nc1ccc(Cc2ccc(NC(=O)c3cc(C(*)=O)cc(N4C(=O)C5C6CCC(C6)C5C4=O)c3)cc2)cc1` (repeat unit) here?
**A.** 293.00 °C

**Q.** For `*Oc1cccc(OC(=O)c2ccc(Oc3ccc(C(*)=O)cc3)cc2)c1` (repeat unit), which glass transition temperature is on record?
**A.** 159.00 °C

**Q.** Which glass transition temperature does the source give for `*CC(*)C(=O)Oc1ccc(/N=N/c2ccc([N+](=O)[O-])cc2)cc1` (repeat unit) here?
**A.** 134.00 °C

**Q.** With `*c1ccc(Cc2ccc(NC(=O)c3cccc(Oc4ccc5c(c4)C(=O)N(*)C5=O)c3)cc2)cc1` (repeat unit) as the molecule, how does the glass transition temperature read?
**A.** 243.00 °C

**Q.** Which glass transition temperature does the source give for `*c1ccc(Oc2ccc(P(=O)(c3ccccc3)c3ccc(Oc4ccc(-c5ccc(*)nc5)cc4)cc3)cc2)cc1` (repeat unit) here?
**A.** 257.00 °C

**Q.** Which glass transition temperature does the source give for `*Nc1ccc(C(C)(C)c2ccc(NC(=O)c3cc(C(*)=O)cc(S(=O)(=O)c4ccccc4)c3)cc2)cc1` (repeat unit) here?
**A.** 287.00 °C

**Q.** With `*c1ccc(OCCCCCCCCCCCOC(=O)c2ccc(C(=O)OCCCCCCCCCCCOc3ccc(-c4nnc(*)s4)cc3)cc2)cc1` (repeat unit) as the molecule, how does the glass transition temperature read?
**A.** 64.00 °C

**Q.** For `*OCCOC(=O)CCCCC(=O)OCCOc1nc(-c2ccc(OC)cc2)nc(*)c1-c1ccc(OC)cc1` (repeat unit), which glass transition temperature is on record?
**A.** 48.00 °C

**Q.** With `*C(=O)c1ccc(Oc2ccc(C(C)(C)c3ccc(Oc4ccc(C(=O)c5ccc6c(c5)C(=O)N(c5ccc(Oc7ccc(N8C(=O)c9ccc(*)cc9C8=O)cc7)cc5)C6=O)cc4)cc3)cc2)cc1` (repeat unit) as the molecule, how does the glass transition temperature read?
**A.** 217.00 °C

**Q.** Which glass transition temperature does the source give for `*Oc1cc(Cl)c(C(C)(C)c2c(Cl)cc(OC(*)=O)cc2Cl)c(Cl)c1` (repeat unit) here?
**A.** 240.00 °C

**Q.** With `*OC(CC)C(*)=O` (repeat unit) as the molecule, how does the glass transition temperature read?
**A.** 15.00 °C

**Q.** For `*CCCCCCCCOc1cccc(NC(=O)c2cccc(C(=O)Nc3cccc(O*)c3)c2)c1` (repeat unit), which glass transition temperature is on record?
**A.** 117.00 °C

**Q.** Which glass transition temperature does the source give for `*C(=O)Nc1cccc(Oc2ccc(S(=O)(=O)c3ccc(Oc4cccc(NC(=O)c5ccc(N6C(=O)c7ccc(*)cc7C6=O)cc5)c4)cc3)cc2)c1` (repeat unit) here?
**A.** 235.00 °C

**Q.** Which glass transition temperature does the source give for `*Oc1ccc(CC(NC(=O)Cc2ccc(OC(=O)CCCCC(*)=O)cc2)C(=O)OCCCCCCCC)cc1` (repeat unit) here?
**A.** 28.00 °C

**Q.** With `*CC(COc1ccc(-c2ccc(C#N)cc2)cc1)O*` (repeat unit) as the molecule, how does the glass transition temperature read?
**A.** 94.2 °C

**Q.** With `*C(=O)c1ccc2c(c1)C(=O)N(c1cccc(Nc3ncnc(Nc4cccc(N5C(=O)c6ccc(*)cc6C5=O)c4)n3)c1)C2=O` (repeat unit) as the molecule, how does the glass transition temperature read?
**A.** 290.00 °C

**Q.** Which glass transition temperature does the source give for `*c1ccc2c(c1)C(=O)N(c1c(C)cc(C(c3ccccc3)(c3cc(C)c(N4C(=O)c5ccc(C(*)(C(F)(F)F)C(F)(F)F)cc5C4=O)c(C(C)C)c3)C(F)(F)F)cc1C(C)C)C2=O` (repeat unit) here?
**A.** 289.00 °C

**Q.** With `*CC(*)C(=O)[O][Na]` (repeat unit) as the molecule, how does the glass transition temperature read?
**A.** 114.40 °C

**Q.** With `*CCOC(=O)c1cccc(C(=O)O*)c1` (repeat unit) as the molecule, how does the glass transition temperature read?
**A.** 58.00 °C

**Q.** With `*CC(O)COc1ccc(S(=O)(=O)c2ccc(O*)c(C)c2)cc1C` (repeat unit) as the molecule, how does the glass transition temperature read?
**A.** 132.50 °C

**Q.** For `*CCCCCCCCCCCCOc1ccc(OCc2ccc(COc3ccc(O*)cc3)cc2)cc1` (repeat unit), which glass transition temperature is on record?
**A.** 24.00 °C

**Q.** With `*CC(*)(C)C(=O)OCCCCCC(=O)Oc1ccc(OC(=O)c2ccc(OCCC)cc2)cc1` (repeat unit) as the molecule, how does the glass transition temperature read?
**A.** 45.00 °C

**Q.** Which glass transition temperature does the source give for `*CCCCNC(=O)CC(=O)N*` (repeat unit) here?
**A.** 73.00 °C

**Q.** For `*CC(*)c1ccccc1C(=O)Nc1ccccc1` (repeat unit), which glass transition temperature is on record?
**A.** 191.00 °C

**Q.** With `*c1ccc(Oc2ccc(N3C(=O)c4ccc(Oc5c(C)cc(-c6cc(C)c(Oc7ccc8c(c7)C(=O)N(*)C8=O)c(C)c6)cc5C)cc4C3=O)cc2)cc1` (repeat unit) as the molecule, how does the glass transition temperature read?
**A.** 299.00 °C

**Q.** Which glass transition temperature does the source give for `*c1ccc2c(c1)C(=O)N(c1cccc(Oc3cccc(N4C(=O)c5ccc(C(F)(F)C(F)(F)C(*)(F)F)cc5C4=O)c3)c1)C2=O` (repeat unit) here?
**A.** 312.00 °C

**Q.** Which glass transition temperature does the source give for `*c1ccc(Oc2ccc(Oc3ccc(-c4cnc5ccc(-c6ccc7nc(*)cnc7c6)cc5n4)cc3)cc2)cc1` (repeat unit) here?
**A.** 235.00 °C

**Q.** For `*CC(*)(C)C(=O)Oc1ccc(C(C)(C)C)cc1` (repeat unit), which glass transition temperature is on record?
**A.** 91.00 °C

**Q.** With `*CCCCCCCCCOC(=O)CCC(=O)O*` (repeat unit) as the molecule, how does the glass transition temperature read?
**A.** 31.00 °C

**Q.** For `*Cc1cccc(CNC(=O)c2ccccc2-c2ccccc2C(=O)N*)c1` (repeat unit), which glass transition temperature is on record?
**A.** 159.00 °C

**Q.** Which glass transition temperature does the source give for `*c1ccc(-c2ccc(-c3cc(-c4ccccc4)c4cc(-c5ccc6nc(*)cc(-c7ccccc7)c6c5)ccc4n3)cc2)cc1` (repeat unit) here?
**A.** 360.00 °C

**Q.** Which glass transition temperature does the source give for `*Nc1ccc(C(c2ccc(NC(=O)c3cc(NC(=O)C45CC6CC(CC(C6)C4)C5)cc(C(*)=O)c3)cc2)(C(F)(F)F)C(F)(F)F)cc1` (repeat unit) here?
**A.** 365.00 °C

**Q.** Which glass transition temperature does the source give for `*Oc1ccc(C2(c3ccc(OC(=O)c4ccc(C(*)=O)cc4)c(C)c3)CCC3CCCCC3C2)cc1C` (repeat unit) here?
**A.** 247.00 °C

**Q.** With `*Sc1ccc(Nc2ccc(*)cc2)cc1` (repeat unit) as the molecule, how does the glass transition temperature read?
**A.** 145.00 °C

**Q.** With `*c1cccc(S(=O)(=O)c2cccc(N3C(=O)c4ccc(Oc5ccc(Sc6ccc(Oc7ccc8c(c7)C(=O)N(*)C8=O)cc6)cc5)cc4C3=O)c2)c1` (repeat unit) as the molecule, how does the glass transition temperature read?
**A.** 231.00 °C

**Q.** Which glass transition temperature does the source give for `*CCCCCCCCCOC(=O)Nc1ccc(C)c(NC(=O)O*)c1` (repeat unit) here?
**A.** 62.00 °C

**Q.** With `*Oc1ccc(C2(c3ccc(OC(=O)CCCCCCCCC(*)=O)cc3)c3ccccc3-c3ccccc32)cc1` (repeat unit) as the molecule, how does the glass transition temperature read?
**A.** 151.00 °C

**Q.** For `*Oc1ccc(S(=O)(=O)c2ccc(Oc3ccc(NC(=O)c4cc(C(=O)Nc5ccc(*)cc5)cc(C(C)(C)C)c4)cc3)cc2)cc1` (repeat unit), which glass transition temperature is on record?
**A.** 232.50 °C

**Q.** Which glass transition temperature does the source give for `*/C=C/c1cccc(/C=C/[Si](C)(CCC(F)(F)F)c2ccc([Si](*)(C)CCC(F)(F)F)cc2)c1` (repeat unit) here?
**A.** 34.50 °C

**Q.** With `*CC(*)OCCOCCOCCOC` (repeat unit) as the molecule, how does the glass transition temperature read?
**A.** -76.00 °C

**Q.** For `*Oc1ccc(S(=O)(=O)c2ccc(Oc3ccc(/C=C4\CC/C(=C\c5ccc(*)cc5)C4=O)cc3)cc2)cc1` (repeat unit), which glass transition temperature is on record?
**A.** 235.00 °C

**Q.** With `*Oc1cccc(Oc2ccc(NC(=O)c3ccc(Oc4cccc(Oc5ccc(C(=O)Nc6ccc(*)cc6)cc5)c4)cc3)cc2)c1` (repeat unit) as the molecule, how does the glass transition temperature read?
**A.** 176.50 °C

**Q.** For `*CCCCCCCCCCCCOC(=O)NCc1ccc(CNC(=O)O*)cc1` (repeat unit), which glass transition temperature is on record?
**A.** 45.00 °C

**Q.** With `*Nc1cc(NC(=O)CCCCCCCCC(*)=O)cc(-c2nnc(-c3ccccn3)o2)c1` (repeat unit) as the molecule, how does the glass transition temperature read?
**A.** 85.00 °C

**Q.** Which glass transition temperature does the source give for `*Oc1ccc(NC(=O)Nc2ccccc2CCc2ccc(NC(=O)Nc3ccc(*)cc3)cc2)cc1` (repeat unit) here?
**A.** 200.00 °C

**Q.** Which glass transition temperature does the source give for `*C(=O)c1ccc2c(c1)C(=O)N(c1ccc(Oc3ccccc3N3C(=O)c4ccc(*)cc4C3=O)cc1)C2=O` (repeat unit) here?
**A.** 282.50 °C

**Q.** For `*CC(*)(C)C(=O)OCCC(C)(C)C` (repeat unit) [Poly(3,3-dimethylbutyl methacrylate)], which glass transition temperature is on record?
**A.** 45 ± 1.2 °C

**Q.** Which glass transition temperature does the source give for `*CC(*)C1CCC(C)CC1` (repeat unit) here?
**A.** 132.00 °C

**Q.** Which glass transition temperature does the source give for `*CC(c1ccccn1)C(c1ccccc1)C(*)c1ccccn1` (repeat unit) here?
**A.** 150.00 °C

**Q.** With `*C(=O)Oc1ccc(C(C)(C)c2ccc(OC(=O)c3ccc4c(c3)C(=O)N(c3ccc(Oc5ccc(N6C(=O)c7ccc(*)cc7C6=O)cc5)cc3)C4=O)cc2)cc1` (repeat unit) as the molecule, how does the glass transition temperature read?
**A.** 200.00 °C

**Q.** Which glass transition temperature does the source give for `*OCCOC(=O)CCCC(=O)OCCOc1nc(-c2ccc(OC)cc2)nc(*)c1-c1ccc(OC)cc1` (repeat unit) here?
**A.** 57.00 °C

**Q.** For `*C(=O)c1ccc2c(c1)C(=O)N(c1cc(OCCCC)cc(N3C(=O)c4ccc(*)cc4C3=O)c1)C2=O` (repeat unit), which glass transition temperature is on record?
**A.** 244.00 °C

**Q.** For `*CC(*)(C)C(=O)OCCCCCCCCCCCCCCCCCC` (repeat unit), which glass transition temperature is on record?
**A.** -100.00 °C

**Q.** With `*O[Si](*)(C)CCCOCC1COC(=O)O1` (repeat unit) as the molecule, how does the glass transition temperature read?
**A.** -25.90 °C

**Q.** Which glass transition temperature does the source give for `*c1ccc2c(c1)C(=O)N(c1ccc(Oc3ccc(C(=O)c4cccc(C(=O)c5ccc(Oc6ccc(N7C(=O)c8ccc(C(*)(C(F)(F)F)C(F)(F)F)cc8C7=O)cc6)cc5)c4)cc3)cc1)C2=O` (repeat unit) here?
**A.** 236.00 °C

**Q.** For `*C(=O)Nc1ccc(NC(=O)c2ccc3c(c2)C(=O)N(c2cccc(N4C(=O)c5ccc(*)cc5C4=O)c2)C3=O)cc1` (repeat unit), which glass transition temperature is on record?
**A.** 341.00 °C

**Q.** With `*NNC(=O)/C=C/C(=O)NCCCCCCNC(=O)/C=C/C(*)=O` (repeat unit) as the molecule, how does the glass transition temperature read?
**A.** 102.40 °C

**Q.** For `*NC(CCC(=O)OCc1ccccc1)C(*)=O` (repeat unit), which glass transition temperature is on record?
**A.** 17.00 °C

**Q.** Which glass transition temperature does the source give for `*CC(*)c1ccccc1COCCC(C)C` (repeat unit) here?
**A.** 78.00 °C

**Q.** For `*CCCO*` (repeat unit) [Polyoxytrimethylene ], which glass transition temperature is on record?
**A.** -78 ± 3 °C

**Q.** For `*CC(*)OC(C)CC` (repeat unit) [Poly(vinyl sec-butyl ether) ], which glass transition temperature is on record?
**A.** -22 ± 3 °C

**Q.** With `*Oc1ccc(Oc2ccc(C(=O)c3ccc(*)cc3)cc2)cc1C(C)(C)C` (repeat unit) as the molecule, how does the glass transition temperature read?
**A.** 177.00 °C

**Q.** Which glass transition temperature does the source give for `*C(=O)Oc1ccc(C2(c3ccc(OC(=O)c4ccc5c(c4)C(=O)N(c4ccc(-c6ccc(N7C(=O)c8ccc(*)cc8C7=O)cc6C)c(C)c4)C5=O)cc3)CC3CC2C2CCCC32)cc1` (repeat unit) here?
**A.** 226.00 °C

**Q.** With `*c1ccc(Oc2ccc(N3C(=O)c4ccc(Oc5c(Oc6ccc7c(c6)C(=O)N(*)C7=O)cc(C(C)(C)C)cc5C(C)(C)C)cc4C3=O)cc2)cc1` (repeat unit) as the molecule, how does the glass transition temperature read?
**A.** 228.00 °C

**Q.** Which glass transition temperature does the source give for `*c1ccc(Oc2ccccc2Oc2ccc(N3C(=O)c4ccc(-c5ccc6c(c5)C(=O)N(*)C6=O)cc4C3=O)cc2)cc1` (repeat unit) here?
**A.** 241.00 °C

**Q.** Which glass transition temperature does the source give for `*c1cc(C(=O)OC)cc(N2C(=O)CC(C3Cc4ccccc4C4C(=O)N(*)C(=O)C43)C2=O)c1` (repeat unit) here?
**A.** 258.00 °C

**Q.** Which glass transition temperature does the source give for `*CCCCCCCCCCCCCCCCOC(=O)NCCCCCCCCCCNC(=O)O*` (repeat unit) here?
**A.** 34.00 °C

**Q.** For `*[Si](*)(CCCCCC)c1ccccc1` (repeat unit), which glass transition temperature is on record?
**A.** -70.00 °C
